# In article PMC5218480 (PLoS ONE, 2017):
# Test system: MV-4-11 cells
# Test: Gene expression microarray analysis (Affymetrix PrimeView) and GSEA
# Format: cell-based, human
# Set-up: RFU PODN (11730768_x_at) / Fold change /veh PODN (11730768_x_at) / RFU LINC00158 (11744669_a_at) / Fold change /veh LINC00158 (11744669_a_at) / RFU DUSP10 (11751237_a_at) / Fold change /veh DUSP10 (11751237_a_at) / RFU ID3 (11757404_x_at) / Fold change /veh ID3 (11757404_x_at) / RFU PLEKHG5 (11737974_s_at) / Fold change /veh PLEKHG5 (11737974_s_at) / RFU LRRC4B (11730491_at) / Fold change /veh LRRC4B (11730491_at) / RFU GIMAP4 (11747438_a_at) / Fold change /veh GIMAP4 (11747438_a_at) / RFU KRT8 (11758183_x_at) / Fold change /veh KRT8 (11758183_x_at) / RFU CNN1 (11734310_a_at) / Fold change /veh CNN1 (11734310_a_at) / RFU VPS37D (11726825_at) / Fold change /veh VPS37D (11726825_at) / RFU C10orf10 (11716522_x_at) / Fold change /veh C10orf10 (11716522_x_at) / RFU KIR2DL2 /// KIR2DL4 /// KIR2DL5A /// KIR2DL5B /// KIR2DS1 /// KIR2DS2 /// KIR2DS3 /// KIR2DS4 /// KIR3DL3 /// KIR3DL3 /// KIR3DS1 (11738374_at) / Fold change /veh KIR2DL2 /// KIR2DL4 /// KIR2DL5A /// KIR2DL5B /// KIR2DS1 /// KIR2DS2 /// KIR2DS3 /// KIR2DS4 /// KIR3DL3 /// KIR3DL3 /// KIR3DS1 (11738374_at) / RFU C1QL1 (11718748_at) / Fold change /veh C1QL1 (11718748_at) / RFU TMPRSS4 (11747572_a_at) / Fold change /veh TMPRSS4 (11747572_a_at) / RFU HAMP (11756126_x_at) / Fold change /veh HAMP (11756126_x_at) / RFU RNFT2 (11725882_a_at) / Fold change /veh RNFT2 (11725882_a_at) / RFU NR4A2 (11747474_a_at) / Fold change /veh NR4A2 (11747474_a_at) / RFU ABCC12 (11746883_a_at) / Fold change /veh ABCC12 (11746883_a_at) / RFU TMEM136 (11760407_x_at) / Fold change /veh TMEM136 (11760407_x_at) / RFU CLDN22 /// WWC2 (11732394_at) / Fold change /veh CLDN22 /// WWC2 (11732394_at) / RFU HLA-DPB1 (11760878_x_at) / Fold change /veh HLA-DPB1 (11760878_x_at) / RFU SPINT1 (11716480_a_at) / Fold change /veh SPINT1 (11716480_a_at) / RFU GAP43 (11754022_s_at) / Fold change /veh GAP43 (11754022_s_at) / RFU A4GNT (11735810_at) / Fold change /veh A4GNT (11735810_at) / RFU PRB3 (11715151_x_at) / Fold change /veh PRB3 (11715151_x_at) / RFU TUBB4B (11761932_at) / Fold change /veh TUBB4B (11761932_at) / RFU CAPN14 (11732068_a_at) / Fold change /veh CAPN14 (11732068_a_at) / RFU TMCC2 (11721928_a_at) / Fold change /veh TMCC2 (11721928_a_at) / RFU IRGQ (11745062_a_at) / Fold change /veh IRGQ (11745062_a_at) / RFU FAM174B (11720279_a_at) / Fold change /veh FAM174B (11720279_a_at) / RFU TMPRSS4 (11748680_a_at) / Fold change /veh TMPRSS4 (11748680_a_at) / RFU FAM212B (11763350_a_at) / Fold change /veh FAM212B (11763350_a_at) / RFU PLEKHG5 (11743358_a_at) / Fold change /veh PLEKHG5 (11743358_a_at) / RFU ZSCAN30 (11745921_a_at) / Fold change /veh ZSCAN30 (11745921_a_at) / RFU CMKLR1 (11741424_a_at) / Fold change /veh CMKLR1 (11741424_a_at) / RFU LOC101060620 /// MAPK8IP1 (11723275_at) / Fold change /veh LOC101060620 /// MAPK8IP1 (11723275_at) / RFU SPTSSB (11747773_x_at) / Fold change /veh SPTSSB (11747773_x_at) / RFU PRSS12 (11739890_at) / Fold change /veh PRSS12 (11739890_at) / RFU BIN1 (11741810_x_at) / Fold change /veh BIN1 (11741810_x_at) / RFU WNT11 (11732464_a_at) / Fold change /veh WNT11 (11732464_a_at) / RFU C10orf10 (11716521_a_at) / Fold change /veh C10orf10 (11716521_a_at) / RFU C5orf56 (11738089_at) / Fold change /veh C5orf56 (11738089_at) / RFU CYB561 (11721691_x_at) / Fold change /veh CYB561 (11721691_x_at) / RFU ANKRD19P (11752326_a_at) / Fold change /veh ANKRD19P (11752326_a_at) / RFU OR2T12 /// OR2T33 /// OR2T8 (11738714_s_at) / Fold change /veh OR2T12 /// OR2T33 /// OR2T8 (11738714_s_at) / RFU VCAN (11748164_a_at) / Fold change /veh VCAN (11748164_a_at) / RFU JSRP1 (11732532_at) / Fold change /veh JSRP1 (11732532_at) / RFU KRTAP10-11 (11738290_x_at) / Fold change /veh KRTAP10-11 (11738290_x_at) / RFU MYO3A (11730013_a_at) / Fold change /veh MYO3A (11730013_a_at) / RFU EBF3 (11725865_a_at) / Fold change /veh EBF3 (11725865_a_at) / RFU CAMK2N1 (11719241_x_at) / Fold change /veh CAMK2N1 (11719241_x_at) / RFU C5orf56 (11738088_a_at) / Fold change /veh C5orf56 (11738088_a_at) / RFU OLFML3 (11715873_a_at) / Fold change /veh OLFML3 (11715873_a_at) / RFU LOC100653217 /// NTM (11731650_a_at) / Fold change /veh LOC100653217 /// NTM (11731650_a_at) / RFU MAPK11 (11762145_a_at) / Fold change /veh MAPK11 (11762145_a_at) / RFU FIZ1 (11724087_x_at) / Fold change /veh FIZ1 (11724087_x_at) / RFU OASL (11726364_x_at) / Fold change /veh OASL (11726364_x_at) / RFU SOX15 (11748057_x_at) / Fold change /veh SOX15 (11748057_x_at) / RFU CD79A (11719716_a_at) / Fold change /veh CD79A (11719716_a_at) / RFU HIST1H1D (11736915_at) / Fold change /veh HIST1H1D (11736915_at) / RFU CASKIN2 (11723855_a_at) / Fold change /veh CASKIN2 (11723855_a_at) / RFU LOC730098 (11760151_x_at) / Fold change /veh LOC730098 (11760151_x_at) / RFU OR4N2 (11742367_at) / Fold change /veh OR4N2 (11742367_at) / RFU PRRT2 (11749266_a_at) / Fold change /veh PRRT2 (11749266_a_at) / RFU SNX32 (11753110_a_at) / Fold change /veh SNX32 (11753110_a_at) / RFU CDHR5 (11726645_a_at) / Fold change /veh CDHR5 (11726645_a_at) / RFU RCAN1 (11760418_a_at) / Fold change /veh RCAN1 (11760418_a_at) / RFU FAM167A (11723789_a_at) / Fold change /veh FAM167A (11723789_a_at) / RFU FAM26E (11764081_at) / Fold change /veh FAM26E (11764081_at) / RFU ISYNA1 (11749810_s_at) / Fold change /veh ISYNA1 (11749810_s_at) / RFU ACY1 (11761880_at) / Fold change /veh ACY1 (11761880_at) / RFU 11764098_at / Fold change /veh 11764098_at / RFU SAMD14 (11745864_x_at) / Fold change /veh SAMD14 (11745864_x_at) / RFU NPB (11741838_a_at) / Fold change /veh NPB (11741838_a_at) / RFU TMPRSS6 (11731388_a_at) / Fold change /veh TMPRSS6 (11731388_a_at) / RFU KRTAP10-2 (11738614_at) / Fold change /veh KRTAP10-2 (11738614_at) / RFU ARHGAP8 /// PRR5-ARHGAP8 (11727945_x_at) / Fold change /veh ARHGAP8 /// PRR5-ARHGAP8 (11727945_x_at) / RFU KRTAP5-7 /// NADSYN1 (11734609_at) / Fold change /veh KRTAP5-7 /// NADSYN1 (11734609_at) / RFU RASL12 (11751679_a_at) / Fold change /veh RASL12 (11751679_a_at) / RFU CDKN2B (11736163_a_at) / Fold change /veh CDKN2B (11736163_a_at) / RFU PRF1 (11729649_at) / Fold change /veh PRF1 (11729649_at) / RFU, ZNF638 /// ZNF638-IT1 / Fold change vs veh, ZNF638 /// ZNF638-IT1 / RFU, PANK3 / Fold change vs veh, PANK3 / RFU, SH3YL1 / Fold change vs veh, SH3YL1 / RFU, ZEB2 / Fold change vs veh, ZEB2 / RFU, NRIP1 / Fold change vs veh, NRIP1 / RFU, PTTG1IP / Fold change vs veh, PTTG1IP / RFU, CAPN2 / Fold change vs veh, CAPN2 / RFU, MED14 / Fold change vs veh, MED14 / RFU, SNORA58 / Fold change vs veh, SNORA58 / RFU, C1orf63 / Fold change vs veh, C1orf63 / RFU, LRRFIP1 / Fold change vs veh, LRRFIP1 / RFU, NDUFAF7 / Fold change vs veh, NDUFAF7 / RFU, SLC12A2 / Fold change vs veh, SLC12A2 / RFU, IBTK / Fold change vs veh, IBTK / RFU, ESF1 / Fold change vs veh, ESF1 / Fold change vs veh, TMEM50B / RFU, TAOK1 / Fold change vs veh, TAOK1 / RFU, ACBD3 / Fold change vs veh, ACBD3 / RFU, TMA16 / Fold change vs veh, TMA16 / RFU, RWDD3 / Fold change vs veh, RWDD3 / RFU, BCAT1 / Fold change vs veh, BCAT1 / RFU, EDEM3 / Fold change vs veh, EDEM3 / RFU, TMEM33 / Fold change vs veh, TMEM33 / RFU, WDR75 / Fold change vs veh, WDR75 / RFU, AHCTF1 / Fold change vs veh, AHCTF1 / RFU, TFRC / Fold change vs veh, TFRC / RFU, ZDHHC17 / Fold change vs veh, ZDHHC17 / RFU, NOM1 / Fold change vs veh, NOM1 / RFU, ARL8B / Fold change vs veh, ARL8B / RFU, ZBTB11 / Fold change vs veh, ZBTB11 / RFU, TAMM41 / Fold change vs veh, TAMM41 / RFU, KIAA1704 /// LOC100996395 / Fold change vs veh, KIAA1704 /// LOC100996395 / RFU, ING1 / Fold change vs veh, ING1 / RFU, TRMT61B / Fold change vs veh, TRMT61B / RFU, FUBP3 / Fold change vs veh, FUBP3 / RFU, TP53 / Fold change vs veh, TP53 / RFU, TNKS2 / Fold change vs veh, TNKS2 / RFU, ZFP14 / Fold change vs veh, ZFP14 / RFU, ACTR2 / Fold change vs veh, ACTR2 / RFU, PPP3R1 / Fold change vs veh, PPP3R1 / RFU, PIK3R1 / Fold change vs veh, PIK3R1 / RFU, HNRNPA1 / Fold change vs veh, HNRNPA1 / RFU, RNF170 / Fold change vs veh, RNF170 / RFU, ZNF28 / Fold change vs veh, ZNF28 / RFU, RNGTT / Fold change vs veh, RNGTT / RFU, OGT / Fold change vs veh, OGT / RFU, BRD1 / Fold change vs veh, BRD1 / RFU, MARS / Fold change vs veh, MARS / RFU, ZNF655 / Fold change vs veh, ZNF655 / RFU, FAHD1 / Fold change vs veh, FAHD1 / RFU, BDP1 / Fold change vs veh, BDP1 / RFU, LRRCC1 / Fold change vs veh, LRRCC1 / RFU, ARID1A / Fold change vs veh, ARID1A / RFU, ZNF146 / Fold change vs veh, ZNF146 / RFU, ZNF330 / Fold change vs veh, ZNF330 / RFU, GPN3 / Fold change vs veh, GPN3 / RFU, C9orf123 / Fold change vs veh, C9orf123 / RFU, N4BP2L2 / Fold change vs veh, N4BP2L2 / RFU, ARFIP1 / Fold change vs veh, ARFIP1 / RFU, FAM179B / Fold change vs veh, FAM179B / RFU, BCL10 / Fold change vs veh, BCL10 / RFU, UHRF1BP1L / Fold change vs veh, UHRF1BP1L / RFU, BET1 / Fold change vs veh, BET1 / RFU, CNOT2 / Fold change vs veh, CNOT2 / RFU, ZNF268 / Fold change vs veh, ZNF268 / Fold change vs veh, ZNF507 / RFU, DGCR2 / Fold change vs veh, DGCR2 / RFU, WDSUB1 / Fold change vs veh, WDSUB1 / Fold change vs veh, HSP90B1 /// MIR3652 / RFU, ADSS / Fold change vs veh, ADSS / RFU, GK / Fold change vs veh, GK / RFU, ZNF148 / Fold change vs veh, ZNF148 / RFU, TAF9 / Fold change vs veh, TAF9 / RFU, SLC1A5 / Fold change vs veh, SLC1A5 / RFU, SLMO2 / Fold change vs veh, SLMO2 / RFU, ABCC4 / Fold change vs veh, ABCC4 / RFU, LOC101060439 /// RAP1B / Fold change vs veh, LOC101060439 /// RAP1B / RFU, RFX7 / Fold change vs veh, RFX7 / RFU, GTPBP10 / Fold change vs veh, GTPBP10 / RFU, CNEP1R1 / Fold change vs veh, CNEP1R1 / RFU, BIVM-ERCC5 /// ERCC5 / Fold change vs veh, BIVM-ERCC5 /// ERCC5 / RFU, ILF3 / Fold change vs veh, ILF3 / RFU 11762660_at / Fold change /veh 11762660_at / RFU VCAN (11757783_s_at) / Fold change /veh VCAN (11757783_s_at) / RFU DDX43 (11728927_at) / Fold change /veh DDX43 (11728927_at) / RFU KRT8 (11758188_x_at) / Fold change /veh KRT8 (11758188_x_at) / RFU NKD1 (11759106_at) / Fold change /veh NKD1 (11759106_at) / RFU SRD5A1 (11742802_a_at) / Fold change /veh SRD5A1 (11742802_a_at) / RFU TPSAB1 /// TPSB2 (11721975_s_at) / Fold change /veh TPSAB1 /// TPSB2 (11721975_s_at) / RFU GSTM3 (11746129_a_at) / Fold change /veh GSTM3 (11746129_a_at) / RFU IL23R (11737362_x_at) / Fold change /veh IL23R (11737362_x_at) / RFU TMEM51 (11727254_a_at) / Fold change /veh TMEM51 (11727254_a_at) / RFU PIWIL2 (11732686_x_at) / Fold change /veh PIWIL2 (11732686_x_at) / RFU ORM1 (11744905_x_at) / Fold change /veh ORM1 (11744905_x_at) / RFU CCDC152 (11743942_at) / Fold change /veh CCDC152 (11743942_at) / RFU ECM1 (11717891_a_at) / Fold change /veh ECM1 (11717891_a_at) / RFU IL23R (11748794_a_at) / Fold change /veh IL23R (11748794_a_at) / RFU TNFAIP8L3 (11732012_x_at) / Fold change /veh TNFAIP8L3 (11732012_x_at) / RFU MBOAT4 (11741988_at) / Fold change /veh MBOAT4 (11741988_at) / RFU 11764193_at / Fold change /veh 11764193_at / RFU TMEM53 (11763286_at) / Fold change /veh TMEM53 (11763286_at) / RFU MAGEB2 (11727129_at) / Fold change /veh MAGEB2 (11727129_at) / RFU TMEM200A (11744735_a_at) / Fold change /veh TMEM200A (11744735_a_at) / RFU CCDC152 (11751479_a_at) / Fold change /veh CCDC152 (11751479_a_at) / RFU FAM211A (11726209_a_at) / Fold change /veh FAM211A (11726209_a_at) / RFU RGS16 (11746705_a_at) / Fold change /veh RGS16 (11746705_a_at) / RFU VCAN (11755009_s_at) / Fold change /veh VCAN (11755009_s_at) / RFU RHOB (11743442_s_at) / Fold change /veh RHOB (11743442_s_at) / RFU RGS16 (11720943_a_at) / Fold change /veh RGS16 (11720943_a_at) / RFU RGS16 (11720944_at) / Fold change /veh RGS16 (11720944_at) / RFU, VPS4B / Fold change vs veh, VPS4B / RFU, CREB1 / Fold change vs veh, CREB1 / RFU, DNAJC13 / Fold change vs veh, DNAJC13 / RFU, GNAQ / Fold change vs veh, GNAQ / RFU, CDK5R1 / Fold change vs veh, CDK5R1 / RFU, ZRANB3 / Fold change vs veh, ZRANB3 / RFU, CUL4A / Fold change vs veh, CUL4A / RFU, CCNY / Fold change vs veh, CCNY / RFU, UFL1 / Fold change vs veh, UFL1 / RFU, COG3 / Fold change vs veh, COG3 / RFU, DIAPH2 / Fold change vs veh, DIAPH2 / RFU, SKA2 / Fold change vs veh, SKA2 / RFU, AFF3 / Fold change vs veh, AFF3 / RFU, LMF1 / Fold change vs veh, LMF1 / RFU, IPO11 / Fold change vs veh, IPO11 / RFU, DFFB / Fold change vs veh, DFFB / RFU, FOXP1 / Fold change vs veh, FOXP1 / RFU, CARD8 / Fold change vs veh, CARD8 / RFU, STRN3 / Fold change vs veh, STRN3 / RFU, ADK / Fold change vs veh, ADK / RFU, RASSF2 / Fold change vs veh, RASSF2 / RFU, WIPF1 / Fold change vs veh, WIPF1 / RFU, LARP1B / Fold change vs veh, LARP1B / RFU, RASA1 / Fold change vs veh, RASA1 / RFU, RB1 / Fold change vs veh, RB1 / RFU, PPFIA1 / Fold change vs veh, PPFIA1 / RFU, MAT2A / Fold change vs veh, MAT2A / RFU, CCT5 / Fold change vs veh, CCT5 / RFU, WDR92 / Fold change vs veh, WDR92 / RFU, CUX1 / Fold change vs veh, CUX1 / RFU, TTC7A / Fold change vs veh, TTC7A / RFU, TMEM135 / Fold change vs veh, TMEM135 / RFU, DEPTOR / Fold change vs veh, DEPTOR / RFU, CPM / Fold change vs veh, CPM / RFU, DNAJB6 / Fold change vs veh, DNAJB6 / RFU, CACNA2D3 / Fold change vs veh, CACNA2D3 / RFU, DTX4 / Fold change vs veh, DTX4 / RFU, TFCP2 / Fold change vs veh, TFCP2 / RFU, GMCL1 /// GMCL1P1 / Fold change vs veh, GMCL1 /// GMCL1P1 / RFU, AEBP2 / Fold change vs veh, AEBP2 / RFU, SNHG1 /// SNORD22 /// SNORD25 /// SNORD26 /// SNORD27 /// SNORD28 /// SNORD29 /// SNORD31 / Fold change vs veh, SNHG1 /// SNORD22 /// SNORD25 /// SNORD26 /// SNORD27 /// SNORD28 /// SNORD29 /// SNORD31 / Fold change (Aza/veh), C12orf56 (ProbeSet 11735607_a_at) / Fold change (ACY-1035/veh), C12orf56 (ProbeSet 11735607_a_at) / Fold change (Aza/veh), FGFR1OP (ProbeSet 11751329_s_at) / Fold change (ACY-1035/veh), FGFR1OP (ProbeSet 11751329_s_at) / Fold change (Aza/veh), VPS36 (ProbeSet 11739960_a_at) / Fold change (ACY-1035/veh), VPS36 (ProbeSet 11739960_a_at) / RFU SYPL1 (11715823_x_at) / Fold change /veh SYPL1 (11715823_x_at) / RFU IGFBP7 (11715501_s_at) / Fold change /veh IGFBP7 (11715501_s_at) / RFU REEP3 (11722064_at) / Fold change /veh REEP3 (11722064_at) / RFU IGLL1 (11728026_x_at) / Fold change /veh IGLL1 (11728026_x_at): dose or concentration left out as unconfirmed
# Conditions: MV-4-11 cells, 48 hours
smiles,measurement,value
Nc1ncn([C@@H]2O[C@H](CO)[C@@H](O)[C@H]2O)c(=O)n1 [azacitidine],RFU 11762660_at,14.91 RFU
